Data as given in US8349870B2 (priority 2008, dated 2013).
Read-outs that look alike come from different tables or passages of the source.

Columns and labels:
Format in all cases: in vivo
Plasmopara viticola = assay: Test A: grape downy mildew, spray after inoculation, visual disease rating (% disease control); conditions: 100 = 100% disease control, 0 = no control
Source text: General protocol for preparing test suspensions for Test A-C: The test compounds were first dissolved in acetone in an amount equal to 3% of the final volume and then suspended at the desired concentration (in ppm) in acetone and purified water (50/50 mix by volume) containing 250 ppm of the surfactant Trem® 014 (polyhydric alcohol esters). The resulting test suspensions were then used in Tests A-C. Spraying a 200 ppm test suspension to the point of run-off on the test plants was equivalent to a rate of 500 g/ha.
Grape seedlings were inoculated with a spore suspension of Plasmopara viticola (the causal agent of grape downy mildew) and incubated in a saturated atmosphere at 20° C. for 24 h. After a short drying period, the test suspension was sprayed to the point of run-off on the grape seedlings, which were then moved to a growth chamber at 20° C. for 5 days, after which time the grape seedling were placed back into a saturated atmosphere at 20° C. for 24 h. Upon removal, visual disease ratings were made.
Results for Tests A-C are given in Table A. In the table, a rating of 100 indicates 100% disease control and a rating of 0 indicates no disease control (relative to the controls). A dash (-) indicates no test results, “*” indicates compound was tested at 40 ppm and “**” indicates compound was tested at 10 ppm.

Phytophthora infestans [1] = conditions: tomato late blight, sprayed the day before inoculation
Phytophthora infestans [2] = conditions: tomato late blight, sprayed 17 h after inoculation
[3] = Cmpd No. unmarked, rate not stated in table (b1197 mentions a 200 ppm test suspension)

Compound | Test A rating (% disease control) (Plasmopara viticola; "*" compound tested at 40 ppm) | Test B rating (% disease control) (Phytophthora infestans [1]; "*" compound tested at 40 ppm) | Test C rating (% disease control) (Phytophthora infestans [2]; "*" compound tested at 40 ppm) | other results
CC(=O)NC(=Nc1cc(C)ccc1C)N1CCC(c2nc(C3=NOC(c4ccccc4)C3)cs2)CC1 (stereo not drawn) [compound 27] | 4% | 99% | 58% | 
CCC(=O)C(=O)N1CCC(c2nc(C3=NOC(c4c(F)cccc4F)C3)cs2)CC1 (stereo not drawn) [compound 66] |  | 100% | 99% | 
Cc1ccc(C)c(N=C(NO)N2CCC(c3nc(C4=NOC(c5c(F)cccc5F)C4)cs3)CC2)c1 (stereo not drawn) [compound 25] | 100% | 100% | 99% | 
CC(C)C(O)C(=O)N1CCC(c2nc(C3=NOC(c4c(F)cccc4F)C3)cs2)CC1 (mixture of isomers) [compound 55] |  |  |  | Test A rating (% disease control) (Plasmopara viticola; "**" compound tested at 10 ppm): 10%; Test B rating (% disease control) (Phytophthora infestans [1]; "**" compound tested at 10 ppm): 100%; Test C rating (% disease control) (Phytophthora infestans [2]; "**" compound tested at 10 ppm): 99%
CCC(C)NC(=O)N1CCC(c2nc(C3=NOC(c4ccccc4)C3)cs2)CC1 (stereo not drawn) [compound 17] | 86% | 100% | 95% | 
O=C(C(=O)N1CCC(c2nc(C3=NOC(c4c(F)cccc4F)C3)cs2)CC1)c1ccco1 (stereo not drawn) [compound 72] | 100% | 100% | 99% | 
Cc1ccc(C)c(S(=O)(=O)NC(=O)N2CCC(c3nc(C4=NOC(c5ccccc5)C4)cs3)CC2)c1 (stereo not drawn) [compound 33] | 0% | 0% | 0% | 
N#CCC(=O)N1CCC(c2nc(C3=NOC(c4c(F)cccc4F)C3)cs2)CC1 (stereo not drawn) [compound 63] | 94% | 100% | 92% | 
C#CCCC(=O)N1CCC(c2nc(C3=NOC(c4ccccc4F)C3)cs2)CC1 (stereo not drawn) [Example 8, 1-[4-[4-[4,5-dihydro-5-(2-fluorophenyl)-3-isoxazolyl]-2-thiazolyl]-1-piperidinyl]-4-pentyn-1-one] |  |  |  | Test A rating (% disease control) (Plasmopara viticola; [3]): 46%; Test B rating (% disease control) (Phytophthora infestans [1]; [3]): 40%; Test C rating (% disease control) (Phytophthora infestans [2]; [3]): 0%
Cc1cc(C(F)(F)F)nn1C(=O)C(=O)N1CCC(c2nc(C3=NOC(c4ccccc4F)C3)cs2)CC1 (stereo not drawn) [compound 41] | 17% | 26% | 0% | 
4-[4-(4,5-dihydro-5-phenyl-3-isoxazolyl)-2-thiazolyl]-N-2-propen-1-yl]-1-piperidinecarbothioamide [Example 5] | 83% | 99% | 73% | 
CCOC(=O)CNC(=O)N1CCC(c2nc(C3=NOC(c4ccccc4)C3)cs2)CC1 (stereo not drawn) [compound 18] | 39% | 63% | 26% | 
CSC(=Nc1cc(C)ccc1C)N1CCC(c2nc(C3=NOC(c4ccccc4)C3)cs2)CC1 (stereo not drawn) [Example 1, methyl 4-[4-(4,5-dihydro-5-phenyl-3-isoxazolyl)-2-thiazolyl]-N-(2,5-dimethylphenyl)-1-piperidinecarboximidothioate] | 96% | 97% | 53% | 
Cc1ccc(C)c(C(=O)C(=O)N2CCC(c3nc(C4=NOC(c5c(F)cccc5F)C4)cs3)CC2)c1 (stereo not drawn) [compound 52] | 100% | 100% | 96% | 
Cc1ccc(C)c(N=CN2CCC(c3nc(C4=NOC(c5ccccc5)C4)cs3)CC2)c1.Cl (stereo not drawn) [compound 21] |  |  |  | Test A rating (% disease control) (Plasmopara viticola; [3]): 0%; Test B rating (% disease control) (Phytophthora infestans [1]; [3]): 95%; Test C rating (% disease control) (Phytophthora infestans [2]; [3]): 0%
CC(=O)OCC(=O)N1CCC(c2nc(C3=NOC(c4c(F)cccc4F)C3)cs2)CC1 (stereo not drawn) [compound 64] | 80% | 100% | 68% | 
CNC(=Nc1cc(C)ccc1C)N1CCC(c2nc(C3=NOC(c4ccccc4)C3)cs2)CC1 (stereo not drawn) [compound 28] | 43% | 95% | 0% | 
Cc1ccc(C)c(N=C(N(C)C)N2CCC(c3nc(C4=NOC(c5ccccc5)C4)cs3)CC2)c1 (stereo not drawn) [compound 24] | 79% | 97% | 39% | 
CCONC(=Nc1cc(C)ccc1C)N1CCC(c2nc(C3=NOC(c4c(F)cccc4F)C3)cs2)CC1 (stereo not drawn) [compound 39] | 99% | 100% | 97% | 

Compound | Test A rating (% disease control) (Plasmopara viticola; "*" compound tested at 40 ppm) | Test B rating (% disease control) (Phytophthora infestans [1]; "*" compound tested at 40 ppm) | Test C rating (% disease control) (Phytophthora infestans [2]; "*" compound tested at 40 ppm) | other results
CC(C)C(=O)C(=O)N1CCC(c2nc(C3=NOC(c4c(F)cccc4F)C3)cs2)CC1 (stereo not drawn) [compound 68] | 99% | 100% | 93% | 
CC(C)CC(O)C(=O)N1CCC(c2nc(C3=NOC(c4c(F)cccc4F)C3)cs2)CC1 (stereo not drawn) [compound 57] |  | 100% | 97% | 
CC(C)(C)NC(=O)N1CCC(c2nc(C3=NOC(c4ccccc4)C3)cs2)CC1 (stereo not drawn) [compound 16] |  |  |  | Test A rating (% disease control) (Plasmopara viticola; [3]): 86%; Test B rating (% disease control) (Phytophthora infestans [1]; [3]): 100%; Test C rating (% disease control) (Phytophthora infestans [2]; [3]): 95%
CCOC(=Nc1cc(C)ccc1C)N1CCC(c2nc(C3=NOC(c4ccccc4)C3)cs2)CC1 (stereo not drawn) [compound 29] | 92% | 99% | 80% | 
CC(C)C(O)C(=O)N1CCC(c2nc(C3=NOC(c4c(F)cccc4F)C3)cs2)CC1 (stereo not drawn) [compound 49] | 97% | 98% | 100% | 
O=C(C(=O)N1CCC(c2nc(C3=NOC(c4ccccc4F)C3)cs2)CC1)c1ccco1 (stereo not drawn) [compound 47] | 85% | 33% | 0% | 
O=C(NCC1CCCCC1)N1CCC(c2nc(C3=NOC(c4ccccc4)C3)cs2)CC1 (stereo not drawn) [compound 20] | 95% | 100% | 93% | 
Cc1cc(C)c(C(=O)C(=O)N2CCC(c3nc(C4=NOC(c5ccccc5F)C4)cs3)CC2)c(C)c1 (stereo not drawn) [compound 51] | 0% | 52% | 0% | 
methyl 4-[4-(4,5-dihydro-5-phenyl-3-isoxazoly)-2-thiazolyl]-N-(2,5-dimethylphenyl)-1-piperidinecarboximidate [Example 3] | 99% | 100% | 99% | 
O=C(CC1CCCC(C(F)(F)F)C1)N1CCC(c2nc(C3=NOC(c4c(F)cccc4F)C3)cs2)CC1 (stereo not drawn) [compound 76] | 66% | 67% | 0% | 
Cc1cc(C(F)(F)F)nn1C(=O)C(=O)N1CCC(c2nc(C3=NOC(c4c(F)cccc4F)C3)cs2)CC1 (stereo not drawn) [compound 43] | 0% | 25% | 0% | 
4-[4-(4,5-dihydro-5-phenyl-3-isoxazoly)-2-thiazolyl]-N-pentyl-1-piperidinecarboxamide [Example 4] | 86% | 100% | 76% | 
Cc1ccc(C)c(C(=O)NC(=O)N2CCC(c3nc(C4=NOC(c5c(F)cccc5F)C4)cs3)CC2)c1 (stereo not drawn) [compound 36] | 0% | 99% | 99% | 
CN(C)C(=O)N1CCC(c2nc(C3=NOC(c4ccccc4)C3)cs2)CC1 (stereo not drawn) [compound 11] |  |  |  | Test A rating (% disease control) (Plasmopara viticola; [3]): 0%; Test B rating (% disease control) (Phytophthora infestans [1]; [3]): 0%; Test C rating (% disease control) (Phytophthora infestans [2]; [3]): 0%
CC(C)C(O)C(=O)N1CCC(c2nc(C3=NOC(c4c(F)cccc4F)C3)cs2)CC1 (mixture of isomers) [compound 54] |  | 100% | 99% | 
CCCCCCC(O)C(=O)N1CCC(c2nc(C3=NOC(c4c(F)cccc4F)C3)cs2)CC1 (stereo not drawn) [compound 61] |  | 100% | 47% | 
CCCCC(O)C(=O)N1CCC(c2nc(C3=NOC(c4c(F)cccc4F)C3)cs2)CC1 (stereo not drawn) [compound 58] |  | 100% | 99% | 
O=C(C(O)C(F)(F)F)N1CCC(c2nc(C3=NOC(c4c(F)cccc4F)C3)cs2)CC1 (stereo not drawn) [compound 53] |  | 100% | 95% | 
